Experimental data: article PMC10707942, “Polyaromatic Bis(indolyl)methane Derivatives with Antiproliferative and Antiparasitic Activity” (Molecules, 2023)

Key:
HT-29 cell line = test system: HT-29 cell line; design: method as in PMID 30715794; conditions: cited from earlier work
Leishmania donovani = test system: Leishmania donovani; design: method as in PMID 18703668, PMID 17922678; conditions: cited from earlier work
[1] = test system: HT-29 (human colorectal adenocarcinoma); assay: Cytotoxicity in cancer cell line, alamarBlue assay; type: cell-based; conditions: for IC50: Homo sapiens, HT-29, 72 h, alamarBlue, error reported as σ; for Selectivity Index (SI) HT-29: SI = IC50 MRC-5/IC50 HT-29
Procedure: (§1) HeLa (human cervical carcinoma) and HT-29 (human colorectal adenocarcinoma) cell lines were maintained at 37 °C, 5% CO2 in high glucose DMEM (4.5 g/L glucose) supplemented with 10% hiFBS, 100 U/mL penicillin, […] streptomycin, 2 mM L-glutamine and non-essential amino acids (1X). Cells were plated and passaged according to ATCC recommendations and were used for the experiments while in the exponential growth phase.
(§2) Cytotoxicity was measured in MRC-5, HeLa and HT-29 cell lines using alamarBlue® assay (ThermoFisher Scientific). The stock solutions of the compounds were prepared in DMSO, and the final DMSO percentage in each well was adjusted to be less than 1%. A total of 5 × 10^3 cells per mL (MRC-5, HeLa or HT-29 cells) were seeded in 96-well plates (100 μL/well) with 24 h of incubation time before compound addition at 37 °C, 5% CO2. Then, the compounds were added at increasing concentrations (from 0 to 100 μM), and the plates were incubated for 72 h. A total of 20 μL of resazurin solution (110 ng/mL) was added to each well, and cells were incubated for 4 h. Then, cells were lysed with 50 μL/well of 3% SDS. The plate was incubated at 37 °C for an extra hour; then, the fluorescence intensity was measured with the Infinite F200 plate reader (TECAN Austria, GmbH), exciting at 550 nm and recording the emission at 590 nm. The results are expressed as the concentration of compound that reduces cell growth by 50% versus untreated control cells (IC50). Data are presented as the average of at least three independent measurements all conducted in triplicate.

[2] = test system: HeLa (human cervical carcinoma); assay: Cytotoxicity in cancer cell line, alamarBlue assay; type: cell-based; conditions: for IC50: Homo sapiens, HeLa, 72 h, alamarBlue, error reported as σ; for Selectivity Index (SI) HeLa: SI = IC50 MRC-5/IC50 HeLa
Procedure: as §1, §2

[3] = test system: MRC-5 cell line (human lung fibroblast); assay: Cytotoxicity in healthy cell line, alamarBlue assay; type: cell-based; conditions: MRC5, 72 h, error reported as σ
Procedure: (§3) The biological activity of the bis(indolyl)methane derivatives 2a–c were evaluated on in vitro models of parasites (T. brucei and L. major), human cancer cells (HeLa and HT-29) and human healthy cells (MRC-5). The toxicity of the BIM derivatives was determined through alamarBlue assay (for T. brucei and MRC-5) or MTT assay (for L. major), and the results are expressed as the concentration of the compound that reduces cell viability by 50% calculated through dose-response curves to give half maximal inhibitory concentration (IC50) (see Figures S7–S11).
MRC-5 cell line (human lung fibroblast) was grown in monolayer at 37 °C, 5% CO2 in DMEM medium (1 g/L glucose) supplemented with 10% hiFBS, 100 U/mL penicillin, […] streptomycin and 2 mM L-glutamine.
as §2

T. brucei = assay: Trypanocidal activity, alamarBlue assay; type: cell-based, Trypanosoma brucei; conditions: for IC50: Trypanosoma brucei, 72 h, alamarBlue, error reported as σ; for Selectivity Index (SI) T. brucei: SI = IC50 MRC-5/IC50 T. brucei
Procedure: The trypanocidal activity of the compounds was assessed using the alamarBlue® assay (ThermoFisher Scientific, Waltham, MA, USA). […] Finally, cells were lysed with 50 μL per well of SDS 3%. The plate was incubated at 37 °C for an extra hour; then, the fluorescence intensity was measured with an Infinite F200 plate reader (Tecan Austria, GmbH, Grödig, Austria), exciting at 550 nm and recording the emission at 590 nm. The results are expressed as the concentration of the compound that reduces cell growth by 50% versus untreated control cells (IC50). Data are presented as the average of at least three independent measurements all conducted in triplicate.

L. major = assay: Leishmanicidal activity, MTT-based assay; type: cell-based, Leishmania major; conditions: for IC50: Leishmania major, promastigotes, 72 h, MTT, error reported as σ; for Selectivity Index (SI) L. major: SI = IC50 MRC-5/IC50 L. major
Procedure: as §3
L. major (MHOM/IL/80/Friedlin) promastigotes were cultured at 28 °C, 5% CO2 in modified RPMI-1640 medium (Invitrogen, Carlsbad, CA, USA) supplemented with 10% hiFBS [45]. Parasites were maintained in culture in their experimental growth phase (below 2 million parasites per mL for T. brucei and 10 million parasites per mL for L. major).
The leishmanicidal activity of the compounds was determined using MTT-based assay (Sigma-Aldrich, St. Louis, MO, USA). The stock solutions of the compounds were prepared in DMSO, and the final DMSO percentage in each well was adjusted to be less than 1%. A total of 4 × 10^6 parasites per mL were incubated at 28 °C in 96-well plates (50 μL/well) alone or in the presence of an increasing concentration of compounds DMSO for 72 h. A total of 10 μL of MTT (5 mg/mL) was added to each well, and parasites were incubated for 4 h at 28 °C. Finally, cells were lysed with 50 μL/well of 20% SDS. The plate was incubated at 37 °C for an extra hour; then, the absorbance was measured with the Infinite F200 plate reader (TECAN Austria, GmbH, Grödig, Austria) at a wavelength of 540 nm. The IC50 was calculated as described above. Data are presented as the average of at least three independent measurements all conducted in triplicate.

Row | SMILES | IC50 (HT-29 cell line) [µM] | IC50 (Leishmania donovani) [µM] | IC50 [1] [µM] | Selectivity Index (SI) HT-29 [1] | IC50 [2] [µM] | Selectivity Index (SI) HeLa [2] | IC50 [3] [µM] | IC50 (T. brucei) [µM] | IC50 (L. major) [µM] | Selectivity Index (SI) T. brucei (T. brucei) | Selectivity Index (SI) L. major (L. major)
1 | c1ccc2c(Cc3c[nH]c4ccccc34)c[nH]c2c1 [Arundine, 3,3-diindolylmethane] | > 100 | 1.2 |  |  |  |  |  |  |  |  | 
2 | Oc1cccc2ccc(C(c3c[nH]c4ccccc34)c3c[nH]c4ccccc34)nc12 [Compound 2c] |  |  | 71.4 ± 3.99 | 0.05 | 28.3 ± 5.01 | 0.11 | 3.25 ± 0.29 | 14.66 ± 0.05 | 20.7 ± 1.71 |  | 
3 | c1ccc(N(c2ccccc2)c2ccc(C(c3c[nH]c4ccccc34)c3c[nH]c4ccccc34)cc2)cc1 [Compound 2a] |  |  | 3.93 ± 0.49 | 8.57 | 37.5 ± 1.86 | 0.90 | 33.7 ± 3.19 | 3.21 ± 0.04 | 3.3 ± 0.25 | 10.50 | 10.21
4 | CN(C)c1ccc(C(c2c[nH]c3ccccc23)c2c[nH]c3ccccc23)c2ccccc12 [Compound 2b] |  |  | 25.4 ± 5.23 | 3.73 | 89.56 ± 0.15 | 1.06 | 94.9 ± 7.27 | 16 ± 4.44 | > 100 | 5.93 | <0.95
